According to PMC3973950, “Synthesis of 5-arylidine amino-1,3,4-thiadiazol-2-[(N-substituted benzyol)]sulphonamides endowed with potent antioxidants and anticancer activity induces growth inhibition in HEK293, BT474 and NCI-H226 cells” (Medicinal Chemistry Research, 2013):

Assays:
[1] = In vitro cytotoxicity by MTT assay, HEK 293; assay type: cell-based, human; settings: human, HEK 293 cells, read-out: % cytotoxicity (100 − % cell survival) of HEK 293 cell line
In short: (§1)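 Cells seeded at ~10,000/well in RPMI-1640 with 10 % newborn calf serum, grown 24 h, then exposed to compounds for 72 h at 37 °C, 5 % CO2. Viability read by MTT (4 h), formazan dissolved in propanol, absorbance at 490 nm.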

[2] = test system: BT474 (breast cancer cell line); experiment: In vitro cytotoxicity by MTT assay, BT474; assay type: cell-based; settings: Homo sapiens, 72 h; for cytotoxicity at 0.005 µM: BT-474, 0.005 μM; for cytotoxicity at 0.005 µM / cytotoxicity at 0.015 µM / cytotoxicity at 0.045 µM / cytotoxicity at 0.13 µM / cytotoxicity at 0.41 µM / cytotoxicity at 1.23 µM / cytotoxicity at 3.7 µM / cytotoxicity at 11.11 µM / cytotoxicity at 33.33 µM / cytotoxicity at 100 µM: read-out: % cytotoxicity (100 − % cell survival) of BT474 cell line; for cytotoxicity at 0.015 µM: BT-474, 0.015 μM; for cytotoxicity at 0.045 µM: BT-474, 0.045 μM; for cytotoxicity at 0.13 µM: BT-474, 0.13 μM; for cytotoxicity at 0.41 µM: BT-474, 0.41 μM; for cytotoxicity at 1.23 µM: BT-474, 1.23 μM; for cytotoxicity at 3.7 µM: BT-474, 3.7 μM; for cytotoxicity at 11.11 µM: BT-474, 11.11 μM; for cytotoxicity at 33.33 µM: BT-474, 33.33 μM; for cytotoxicity at 100 µM: BT-474, 100 μM
In short: as §1

[3] = Superoxide anion radical scavenging (NBT/NADH/PMS); assay type: biochemical; settings: Conc. ± SD; standard catechin; read-out: IC50 inhibitory concentration, Superoxide anion
Procedure: Measurement of superoxide anion scavenging activity of the synthesized compound was taken based on the method described by Nishimiki et al. ([1972]) and slightly modified. […] The reaction mixture was incubated at 25 °C for 5 min, and the absorbance at 560 nm was measured against blank samples. Catechin was used as reference compound. All the experiments were performed in triplicate, and the results were averaged. The percentage of inhibition was determined by comparing the results of control and test samples. The IC50 (nM/mL) value are depicted in Table 1.

[4] = test system: NCI-H226 (lung cancer cell line); experiment: In vitro cytotoxicity by MTT assay, NCI-H226; assay type: cell-based; settings: Homo sapiens, 72 h, read-out: % Cytotoxicity (100 − % cell survival) of NCI-H226 cell line; for cytotoxicity at 0.005 µM: NCI-H226, 0.005 μM; for cytotoxicity at 0.045 µM: NCI-H226, 0.045 μM; for cytotoxicity at 0.13 µM: NCI-H226, 0.13 μM; for cytotoxicity at 0.41 µM: NCI-H226, 0.41 μM; for cytotoxicity at 1.23 µM: NCI-H226, 1.23 μM; for cytotoxicity at 3.7 µM: NCI-H226, 3.7 μM; for cytotoxicity at 11.11 µM: NCI-H226, 11.11 μM; for cytotoxicity at 33.33 µM: NCI-H226, 33.33 μM; for cytotoxicity at 100 µM: NCI-H226, 100 μM
In short: as §1

[5] = In vitro cytotoxicity by MTT assay, NCI-H226; assay type: cell-based; settings: human, NCI-H226 lung cancer cells, 0.015 μM, read-out: % Cytotoxicity (100 − % cell survival) of NCI-H226 cell line
In short: as §1

[6] = Nitric oxide radical scavenging (sodium nitroprusside, Griess reaction); assay type: biochemical; settings: Conc. ± SD; standard curcumin; read-out: IC50 inhibitory concentration, Nitric oxide radical
Procedure: Nitric oxide generated from sodium nitroprusside in aqueous solution at physiological pH interacts with oxygen to produce nitrite ions, which were measured by the Griess reaction (Marcocci et al., [1994]; Green et al., [1982]). Scavenger of nitric oxide competes with oxygen leading to reduced production of nitric oxide (Mondal et al., [2006]). The reaction mixture (3 mL) containing sodium nitroprusside (10 mM) in phosphate-buffered saline (PBS) and the compounds in different concentrations (10, 20, 30, 40, 50 and 100 μg) were incubated at 25 °C for 150 min. At every 30-min interval, the incubated sample (0.5 mL) was removed and Griess reagent (1 % sulphanilamide, 0.1 % naphthylethylene diamine dihydrochloride in 2 % H3PO4) (0.5 mL) was added. The absorbance of the chromophore formed was measured at 546 nm. All the analyses were performed in triplicate, and the results were averaged. The percentage inhibition of nitric oxide generated was measured by comparing the absorbance values of control and test.

[7] = test system: HEK 293, M468 and NCI-H226; experiment: In vitro cytotoxicity by MTT assay, summary over all cell lines; assay type: cell-based; settings: on all cell lines
In short: as §1

## COc1ccccc1C=Nc1nnc(S(=O)(=O)NC(=O)c2ccccc2)s1 [Compound 9c, N-({5-[(2-Methoxybenzylidene)amino]-1,3,4-thiadiazol-2-yl}sulfonyl)benzamide]
[1]
  cytotoxicity at 72 h, 0.005 µM: 36.8%
  cytotoxicity at 72 h, 0.015 µM: 38.2%
  cytotoxicity at 72 h, 0.045 µM: 40.3%
  cytotoxicity at 72 h, 0.13 µM: 42.1%
  cytotoxicity at 72 h, 0.41 µM: 42.9%
  cytotoxicity at 72 h, 1.23 µM: 43.1%
  cytotoxicity at 72 h, 3.7 µM: 44.3%
  cytotoxicity at 72 h, 11.11 µM: 45.9%
  cytotoxicity at 72 h, 33.33 µM: 47.4%
  cytotoxicity at 72 h, 100 µM: 52.3%
[2]
  cytotoxicity at 0.005 µM: 38.1%
  cytotoxicity at 0.015 µM: 41.5%
  cytotoxicity at 0.045 µM: 42.6%
  cytotoxicity at 0.13 µM: 44.4%
  cytotoxicity at 0.41 µM: 47%
  cytotoxicity at 1.23 µM: 50.4%
  cytotoxicity at 3.7 µM: 53.6%
  cytotoxicity at 11.11 µM: 54.8%
  cytotoxicity at 33.33 µM: 58.8%
  cytotoxicity at 100 µM: 67.1%
[2]; BT-474, BT474, concentration at which 50 % of the cells are dead, read-out: CTC50 (cytotoxicity concentration)
  CC50: 0.794 µM
[3]
  IC50: 128 ± 21.7 µM
[4]
  cytotoxicity at 0.005 µM: 31.5%
  cytotoxicity at 0.045 µM: 34.1%
  cytotoxicity at 0.13 µM: 35.1%
  cytotoxicity at 0.41 µM: 35.9%
  cytotoxicity at 1.23 µM: 36.1%
  cytotoxicity at 3.7 µM: 37.7%
  cytotoxicity at 11.11 µM: 38.2%
  cytotoxicity at 33.33 µM: 40.3%
  cytotoxicity at 100 µM: 43.5%
[5]
  cytotoxicity at 72 h, 0.015 µM: 33.2%
[6]
  IC50: 81.9 ± 10.4 µM
[7]
  cytotoxic activity compared with all synthesized compounds: more potent

## COc1cc(C=Nc2nnc(S(=O)(=O)NC(=O)c3ccccc3)s2)ccc1O [Compound 9g, N-({5-[(4-Hydroxy-3-methoxybenzylidene)amino]-1,3,4-thiadiazol-2-yl}sulfonyl)benzamide]
[1]
  cytotoxicity at 72 h, 0.005 µM: 25.4%
  cytotoxicity at 72 h, 0.015 µM: 27.6%
  cytotoxicity at 72 h, 0.045 µM: 28.5%
  cytotoxicity at 72 h, 0.13 µM: 30.3%
  cytotoxicity at 72 h, 0.41 µM: 31.1%
  cytotoxicity at 72 h, 1.23 µM: 32.1%
  cytotoxicity at 72 h, 3.7 µM: 32.8%
  cytotoxicity at 72 h, 11.11 µM: 33.5%
  cytotoxicity at 72 h, 33.33 µM: 34.1%
  cytotoxicity at 72 h, 100 µM: 38.6%
[2]
  cytotoxicity at 0.005 µM: 27.4%
  cytotoxicity at 0.015 µM: 28%
  cytotoxicity at 0.045 µM: 28.7%
  cytotoxicity at 0.13 µM: 29.2%
  cytotoxicity at 0.41 µM: 31.4%
  cytotoxicity at 1.23 µM: 32.8%
  cytotoxicity at 3.7 µM: 33.2%
  cytotoxicity at 11.11 µM: 34.7%
  cytotoxicity at 33.33 µM: 36.2%
  cytotoxicity at 100 µM: 38.1%
other
  melting point: 252 to 254 °C
[4]
  cytotoxicity at 0.005 µM: 32.7%
  cytotoxicity at 0.045 µM: 34.1%
  cytotoxicity at 0.13 µM: 35.1%
  cytotoxicity at 0.41 µM: 36.3%
  cytotoxicity at 1.23 µM: 37.5%
  cytotoxicity at 3.7 µM: 38.6%
  cytotoxicity at 11.11 µM: 39.2%
  cytotoxicity at 33.33 µM: 39.8%
  cytotoxicity at 100 µM: 42.5%
[5]
  cytotoxicity at 72 h, 0.015 µM: 33.2%
[7]
  cytotoxic activity compared with all synthesized compounds: less activity

## CN(C)c1ccc(C=Nc2nnc(S(=O)(=O)NC(=O)c3ccccc3)s2)cc1 [Compound 9h, N-[(5-{[4-(Dimethylamino)benzylidene]amino}-1,3,4-thiadiazol-2-yl)sulfonyl]benzamide]
[1]
  cytotoxicity at 72 h, 0.005 µM: 32%
  cytotoxicity at 72 h, 0.015 µM: 32.9%
  cytotoxicity at 72 h, 0.045 µM: 34.5%
  cytotoxicity at 72 h, 0.13 µM: 34.8%
  cytotoxicity at 72 h, 0.41 µM: 35.1%
  cytotoxicity at 72 h, 1.23 µM: 35.7%
  cytotoxicity at 72 h, 3.7 µM: 35.7%
  cytotoxicity at 72 h, 11.11 µM: 36.2%
  cytotoxicity at 72 h, 33.33 µM: 36.9%
  cytotoxicity at 72 h, 100 µM: 37.6%
[2]
  cytotoxicity at 0.005 µM: 29%
  cytotoxicity at 0.015 µM: 29.1%
  cytotoxicity at 0.045 µM: 30.6%
  cytotoxicity at 0.13 µM: 32.9%
  cytotoxicity at 0.41 µM: 33.8%
  cytotoxicity at 1.23 µM: 34.2%
  cytotoxicity at 3.7 µM: 35.2%
  cytotoxicity at 11.11 µM: 38.4%
  cytotoxicity at 33.33 µM: 41.5%
  cytotoxicity at 100 µM: 47.7%
other
  melting point: 236 to 238 °C
[4]
  cytotoxicity at 0.005 µM: 32.9%
  cytotoxicity at 0.045 µM: 35.4%
  cytotoxicity at 0.13 µM: 36.3%
  cytotoxicity at 0.41 µM: 36.4%
  cytotoxicity at 1.23 µM: 37.2%
  cytotoxicity at 3.7 µM: 37.5%
  cytotoxicity at 11.11 µM: 37.9%
  cytotoxicity at 33.33 µM: 39.2%
  cytotoxicity at 100 µM: 40%
[5]
  cytotoxicity at 72 h, 0.015 µM: 35%
